ChEMBL document CHEMBL1201862, “PubChem BioAssay data set” (2004)
Active and inactive are the calls of the source.

Legend:
[1] = growth suppression of beta-catenin-knockout colon cells, dose response, cell-based, HCT116, human colon tumor (AID 1045); type: functional;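 further: HCT116 colon tumor cells with beta catenin knocked out; cells exposed to compound for 60 hours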
[2] = biological target: T1, Microphthalmia-associated transcription factor (Homo sapiens, UniProt O75030); assay: TRPM1 promoter luciferase signal decrease, dose response, MITF inhibitor project, cell-based, SK-MEL-5, cherry-picked, set 3 (AID 493073); type: functional
T1 sequence (O75030 whole entry): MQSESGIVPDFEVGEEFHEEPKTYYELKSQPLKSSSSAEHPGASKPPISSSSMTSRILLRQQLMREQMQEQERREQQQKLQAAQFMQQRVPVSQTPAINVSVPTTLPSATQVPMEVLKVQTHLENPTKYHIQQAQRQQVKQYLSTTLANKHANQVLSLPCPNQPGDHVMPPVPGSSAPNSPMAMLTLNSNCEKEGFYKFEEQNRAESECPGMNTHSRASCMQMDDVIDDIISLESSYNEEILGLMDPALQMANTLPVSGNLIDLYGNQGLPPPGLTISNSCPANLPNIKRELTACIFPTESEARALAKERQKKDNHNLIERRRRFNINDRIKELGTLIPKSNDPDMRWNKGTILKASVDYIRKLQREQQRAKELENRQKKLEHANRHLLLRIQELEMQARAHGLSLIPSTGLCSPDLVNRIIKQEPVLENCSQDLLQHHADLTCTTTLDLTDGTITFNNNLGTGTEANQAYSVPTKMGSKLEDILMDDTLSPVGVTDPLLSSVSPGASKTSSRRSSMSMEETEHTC

[3] = inhibitors of PGC1a acetylation in cells, dose response, cell-based, cherry-picked samples (AID 720514); type: functional;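 further: potency may reflect raised or lowered acetylation signal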
[4] = biological target: Induced myeloid leukemia cell differentiation protein Mcl-1 (Homo sapiens, UniProt Q07820); type: functional
[5] = growth suppression of PTEN-null colon cells, dose response, cell-based, HCT116 PTEN knockout (AID 1047); type: functional;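 further: HCT116 colon tumor cells with PTEN knocked out; cells exposed to compound for 60 hours before readout; potency for loss of cell viability measured by luminescence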
[6] = biological target: Matrix metalloproteinase-14 (Homo sapiens, UniProt P50281); assay: Dose Response confirmation of uHTS hits for a small molecule inhibitors of MT1-MMP activation in a fluorescence assay set 2.; type: functional
[7] = THP-1 cell cytotoxicity, dose response, cytotoxicity control for Vif-APOBEC3G degradation inhibitor project, THP-1 cells (AID 1117359); type: functional; conditions: Human immunodeficiency virus 1, THP-1
[8] = HepG2 cell cytotoxicity, dose response, cytotoxicity control for Shn3 inhibitor project, CellTiter-Glo, cherry-picked (AID 624134); type: functional, cell-based
[9] = Shn3 3'UTR reporter inhibitors, dose response, cell-based, Clone20 osteoblasts, firefly luciferase, cherry-picked (AID 624132); type: functional;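 further: firefly luciferase luminescence from reporter carrying the Shn3 3'UTR in osteoblasts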
A549 = assay: A549 cell toxicity, dose response, cytotoxicity control, plate reader, cherry-pick samples (AID 687028); type: functional, cell-based; conditions: Homo sapiens
[10] = Luminescence Cell-Based Dose Response HTS to Identify Inhibitors of 5'UTR Stem-Loop Driven Prion Protein mRNA Translation in H4 Neuroglioblastoma Cells. [Related pubchem assays: 1827 (Project Summary), 1813 (Primary HTS)]; type: functional
[11] = HEp-2 cell cytotoxicity, dose response, cytotoxicity control for RSV inhibitor project, HTS (AID 2410); type: functional; conditions: human respiratory syncytial virus
[12] = biological target: T2, Ubiquitin-conjugating enzyme E2 N (Homo sapiens, UniProt P61088); type: functional;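 further: Dose-response confirmation in a TR-FRET assay detecting UBC13-driven polyubiquitin chain formation, inhibition measured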
T2 sequence (P61088 whole entry): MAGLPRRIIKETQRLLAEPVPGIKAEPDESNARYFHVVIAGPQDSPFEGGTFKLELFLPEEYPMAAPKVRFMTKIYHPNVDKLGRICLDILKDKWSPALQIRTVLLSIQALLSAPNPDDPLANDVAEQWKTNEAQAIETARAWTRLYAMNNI

[13] = inhibitors of SNCA 5'UTR-driven reporter translation, confirmation, H4 neuroglioma cells, luminescence (AID 1988); type: functional, cell-based
[14] = control 3'UTR Renilla luciferase suppression, dose response, counter-screen for Shn3 inhibitor project, cell-based, Clone20-Shn3RL, cherry-picked (AID 624133); type: functional
[15] = inhibitors of firefly luciferase expression or activity, dose response, H4 neuroglioma cells, luminescence (AID 1990); type: functional, cell-based
[16] = biological target: Fructose-bisphosphate aldolase (Mycobacterium tuberculosis, UniProt P9WQA3); assay: Fluorescence-based biochemical high throughput dose response assay for inhibitors of the fructose-bisphosphate aldolase (FBA) of M. tuberculosis.; type: functional
[17] = biological target: T3, Oxysterols receptor LXR-beta (Homo sapiens, UniProt P55055); type: functional, cell-based;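 further: Cell-based luminescence dose-response assay of agonist activity at LXR, run as a confirmatory counterscreen to a daf-12 agonist screen; HEK293 cells with Gal4-LXR fusion and GAL4-driven luciferase reporter; agonist potency from rising luciferase signal of a Gal4-LXR reporter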
T3 sequence (P55055 whole entry): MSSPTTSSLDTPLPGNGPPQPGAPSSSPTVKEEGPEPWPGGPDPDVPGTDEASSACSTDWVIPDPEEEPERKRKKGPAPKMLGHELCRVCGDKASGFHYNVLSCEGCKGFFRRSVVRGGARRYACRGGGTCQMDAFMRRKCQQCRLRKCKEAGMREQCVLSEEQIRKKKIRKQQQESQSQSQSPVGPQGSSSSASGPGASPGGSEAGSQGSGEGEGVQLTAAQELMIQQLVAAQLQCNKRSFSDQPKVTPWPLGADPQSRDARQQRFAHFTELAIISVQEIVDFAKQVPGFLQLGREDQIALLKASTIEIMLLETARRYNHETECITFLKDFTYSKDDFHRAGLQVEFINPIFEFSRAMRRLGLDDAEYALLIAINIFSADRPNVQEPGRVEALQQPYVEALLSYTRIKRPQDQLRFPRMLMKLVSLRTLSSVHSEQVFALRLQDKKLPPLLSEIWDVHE

[18] = HepG2 cell cytotoxicity, dose response, cytotoxicity control, ATP luminescence, cherry-pick, activator set 2 (AID 1053143); type: functional, cell-based
[19] = biological target: T4, Small ubiquitin-related modifier 1 (Homo sapiens, UniProt P63165); assay: inhibitors of SUMO1 peptide binding, dose response, biochemical, fluorescence polarization, uHTS hits (AID 624382); type: functional; conditions: read-out: IC50_Mean
[20] = biological target: 1-phosphatidylinositol 4,5-bisphosphate phosphodiesterase gamma-1 (Homo sapiens, UniProt P19174); assay: Counterscreen for inhibitors of phospholipase C isozymes (PLC-B3): Fluorescence-based biochemical high throughput dose response assay to identify inhibitors of phospholipase C isozymes (PLC-gamma1).
[21] = biological target: 1-phosphatidylinositol 4,5-bisphosphate phosphodiesterase beta-3 (Homo sapiens, UniProt Q01970); assay: Fluorescence-based biochemical high throughput dose response assay to identify inhibitors of phospholipase C isozymes (PLC-B3).
[22] = biological target: T4, Small ubiquitin-related modifier 1; assay: inhibitors of SUMO1 partner interactions, dose response, biochemical, FRET (AID 624383); type: functional; conditions: read-out: IC50_Mean

T4 sequence (P63165 whole entry): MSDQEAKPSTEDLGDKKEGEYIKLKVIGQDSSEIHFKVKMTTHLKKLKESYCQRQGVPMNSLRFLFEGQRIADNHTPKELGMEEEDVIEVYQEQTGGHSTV
Fructose-bisphosphate aldolase, sequence (P9WQA3 whole entry, the tested form may be a part): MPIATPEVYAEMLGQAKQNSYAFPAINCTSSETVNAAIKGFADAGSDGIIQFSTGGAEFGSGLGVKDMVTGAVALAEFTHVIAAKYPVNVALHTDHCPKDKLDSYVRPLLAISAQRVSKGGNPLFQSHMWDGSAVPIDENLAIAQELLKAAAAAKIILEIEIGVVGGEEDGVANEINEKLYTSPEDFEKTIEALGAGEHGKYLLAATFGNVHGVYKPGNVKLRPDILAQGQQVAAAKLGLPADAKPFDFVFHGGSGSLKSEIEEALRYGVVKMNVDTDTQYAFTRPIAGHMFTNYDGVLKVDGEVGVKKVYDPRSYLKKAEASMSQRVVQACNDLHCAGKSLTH
Induced myeloid leukemia cell differentiation protein Mcl-1, sequence (Q07820 whole entry): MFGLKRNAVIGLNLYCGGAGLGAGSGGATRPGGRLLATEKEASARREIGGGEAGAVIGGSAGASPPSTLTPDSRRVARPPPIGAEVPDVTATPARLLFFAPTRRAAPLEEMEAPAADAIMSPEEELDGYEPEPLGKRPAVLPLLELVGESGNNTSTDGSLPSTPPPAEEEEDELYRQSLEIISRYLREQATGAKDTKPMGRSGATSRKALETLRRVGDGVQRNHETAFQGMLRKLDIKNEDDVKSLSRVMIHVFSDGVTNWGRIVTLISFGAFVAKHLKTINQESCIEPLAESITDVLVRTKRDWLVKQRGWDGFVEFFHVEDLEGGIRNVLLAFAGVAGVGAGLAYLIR
1-phosphatidylinositol 4,5-bisphosphate phosphodiesterase beta-3, sequence (Q01970 whole entry): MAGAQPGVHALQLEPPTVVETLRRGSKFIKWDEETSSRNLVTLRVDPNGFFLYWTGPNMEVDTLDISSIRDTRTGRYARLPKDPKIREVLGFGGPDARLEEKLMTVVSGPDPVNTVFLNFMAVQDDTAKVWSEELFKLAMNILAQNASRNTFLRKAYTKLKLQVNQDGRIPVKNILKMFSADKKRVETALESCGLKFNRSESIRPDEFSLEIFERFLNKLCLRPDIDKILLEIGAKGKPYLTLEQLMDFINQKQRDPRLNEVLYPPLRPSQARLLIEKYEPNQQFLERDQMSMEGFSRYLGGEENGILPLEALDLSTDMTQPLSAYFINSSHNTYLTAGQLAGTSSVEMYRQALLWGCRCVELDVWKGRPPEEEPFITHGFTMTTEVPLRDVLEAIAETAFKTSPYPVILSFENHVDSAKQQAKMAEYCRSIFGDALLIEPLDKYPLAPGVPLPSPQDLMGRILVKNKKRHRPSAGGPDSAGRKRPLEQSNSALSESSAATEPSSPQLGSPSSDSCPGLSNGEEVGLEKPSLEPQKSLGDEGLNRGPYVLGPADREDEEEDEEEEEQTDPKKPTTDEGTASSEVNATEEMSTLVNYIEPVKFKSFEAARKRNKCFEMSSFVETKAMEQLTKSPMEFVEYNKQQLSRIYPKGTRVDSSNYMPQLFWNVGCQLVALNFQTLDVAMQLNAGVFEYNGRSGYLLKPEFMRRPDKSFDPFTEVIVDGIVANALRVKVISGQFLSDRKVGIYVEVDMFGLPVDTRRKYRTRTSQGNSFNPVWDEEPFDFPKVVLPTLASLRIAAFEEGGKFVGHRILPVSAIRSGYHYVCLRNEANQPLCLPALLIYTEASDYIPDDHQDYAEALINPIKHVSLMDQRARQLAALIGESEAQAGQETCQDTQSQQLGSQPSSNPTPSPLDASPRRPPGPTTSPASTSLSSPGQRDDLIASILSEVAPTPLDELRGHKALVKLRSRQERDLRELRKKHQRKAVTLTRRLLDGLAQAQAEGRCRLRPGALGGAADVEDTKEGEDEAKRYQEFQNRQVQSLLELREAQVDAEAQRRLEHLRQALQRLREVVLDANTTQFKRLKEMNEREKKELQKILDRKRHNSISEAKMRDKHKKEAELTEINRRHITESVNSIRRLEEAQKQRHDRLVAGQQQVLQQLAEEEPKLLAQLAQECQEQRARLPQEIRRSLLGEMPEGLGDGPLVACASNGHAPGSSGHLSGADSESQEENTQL
1-phosphatidylinositol 4,5-bisphosphate phosphodiesterase gamma-1, sequence (P19174 whole entry): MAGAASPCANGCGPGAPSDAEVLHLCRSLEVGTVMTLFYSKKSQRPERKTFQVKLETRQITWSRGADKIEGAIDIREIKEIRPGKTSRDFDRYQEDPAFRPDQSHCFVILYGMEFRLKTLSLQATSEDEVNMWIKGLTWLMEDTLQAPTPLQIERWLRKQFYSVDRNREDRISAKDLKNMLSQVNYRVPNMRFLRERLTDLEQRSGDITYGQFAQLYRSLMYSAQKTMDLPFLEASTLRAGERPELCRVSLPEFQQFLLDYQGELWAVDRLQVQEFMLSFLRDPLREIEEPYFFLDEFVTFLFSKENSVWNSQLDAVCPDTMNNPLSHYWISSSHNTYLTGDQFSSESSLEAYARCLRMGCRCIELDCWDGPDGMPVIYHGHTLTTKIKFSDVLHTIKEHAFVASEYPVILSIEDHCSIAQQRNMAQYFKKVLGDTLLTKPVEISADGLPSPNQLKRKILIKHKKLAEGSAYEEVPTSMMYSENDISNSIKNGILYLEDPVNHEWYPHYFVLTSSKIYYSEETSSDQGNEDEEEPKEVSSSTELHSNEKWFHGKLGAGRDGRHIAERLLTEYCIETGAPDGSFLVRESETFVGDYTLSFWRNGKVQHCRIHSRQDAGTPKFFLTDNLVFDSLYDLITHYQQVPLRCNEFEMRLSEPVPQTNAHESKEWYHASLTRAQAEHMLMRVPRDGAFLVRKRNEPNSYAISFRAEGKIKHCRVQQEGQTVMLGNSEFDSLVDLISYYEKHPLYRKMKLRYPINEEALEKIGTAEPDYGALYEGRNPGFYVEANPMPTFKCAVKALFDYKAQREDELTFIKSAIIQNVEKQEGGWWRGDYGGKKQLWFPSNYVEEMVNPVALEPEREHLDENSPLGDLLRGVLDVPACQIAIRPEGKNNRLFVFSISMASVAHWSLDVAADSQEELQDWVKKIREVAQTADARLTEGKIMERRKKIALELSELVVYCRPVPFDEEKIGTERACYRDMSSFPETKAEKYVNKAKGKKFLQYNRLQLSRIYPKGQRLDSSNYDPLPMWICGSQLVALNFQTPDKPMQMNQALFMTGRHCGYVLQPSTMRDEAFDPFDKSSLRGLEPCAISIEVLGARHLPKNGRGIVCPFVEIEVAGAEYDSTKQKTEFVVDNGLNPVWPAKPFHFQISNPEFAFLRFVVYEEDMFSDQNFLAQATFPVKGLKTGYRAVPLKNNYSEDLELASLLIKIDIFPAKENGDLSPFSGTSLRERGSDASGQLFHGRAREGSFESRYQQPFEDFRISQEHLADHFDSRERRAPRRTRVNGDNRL

C=CCn1c(C)cc(C(=O)Cn2ncc(Cl)c(Cl)c2=O)c1C
EC50 [1]: 2.12 µM (active)
AC50 [2]: 9.97 µM (active)
AC50 [3]: 5.68 µM (active)
IC50 [4]: 5.14 µM (active)
EC50 [5]: 3.08 µM (active)

COc1ccc(OCC(=O)NNc2c3ccccc3nc3ccccc23)cc1
IC50 [6]: > 80 µM (inactive)

Cc1ccccc1S(=O)(=O)Cc1ccc(C(=O)NCCCN2CCC(C)CC2)o1
CC50 [7]: > 40 µM (active)

CCc1ccc(O)c(CNCCNCc2cc(CC)ccc2O)c1
AC50 [8]: 15.6 µM (active)
AC50 [9]: 1.38 µM (active)
AC50 (A549): 19.8 µM (active)
EC50 [10]: 12 µM (active)
CC50 [11]: 9.08 µM (active)
IC50 [12]: > 20 µM (inactive)
EC50 [13]: 9.33 µM (active)
AC50 [14]: 8.22 µM (active)
EC50 [15]: 11 µM (active)

Cc1cc(-c2ccc(Cl)cc2)n2nc(N)nc2n1
IC50 [16]: 1.4 µM (active)

Cc1ccc(-c2cnc3ccccc3n2)cc1C
EC50 [17]: > 67.6 µM (inactive)
EC50 (cells): > 67.6 µM (inactive)
AC50 [18]: 26 µM (active)

CCOc1c2ccc(C(=O)NC3CCCc4ccccc43)cc2nn1CC (stereo not given)
IC50 [16]: 1.64 µM (active)

O=C1NC[C@@H](Cc2ccc(O)cc2)N(CCc2cc(C(F)(F)F)cc(C(F)(F)F)c2)C1=O
IC50 [19]: > 66.6 µM (inactive)
IC50 [20]: 82.2 µM (inactive)
IC50 [21]: > 122 µM (inactive)
IC50 [22]: 9.75 µM (active)
